Measurements published in PMC3586229 (Bioorganic & medicinal chemistry letters, 2012).

Type: physicochemical
Conditions: for Stability in aqueous solution (MS, time course): DMSO solution diluted 1 to 1000 in water, followed over 24 h

SMILES	Stability in aqueous solution (MS, time course)	Stability in buffer solution (buffer solution, pH 7.4)
CC(C)C[C@H](NC(=O)OCc1ccccc1)C(=O)N[C@H](C=O)CC1CCNC1=O (stereo partly drawn) [Compound 6a]	the hydrated form was the dominant species after only five minutes exposure to water	
CC(C)C[C@H](NC(=O)OCc1ccccc1)C(=O)N[C@@H](CC1CCNC1=O)C(O)S(=O)(=O)[O-].[Na+] (stereo partly drawn) [Compound 7a]	remains unchanged as the bisulfite form after 24 h	gradually dissociates into the corresponding aldehyde 6a within an hour
